From article PMC7044277 (Nature Communications, 2020)
Where “and” joins values, the source holds several entries; their conditions need not be identical. Equal values may be shown once.

How the values were obtained:
Format in all cases: cell-based
320 non-olfactory GPCRs [1] = biological target: T1, 320 non-olfactory GPCRs (Homo sapiens, UniProt P47900); conditions: receptor P2RY1; replicate values, Fig_4g
T1 construct: expressed in transfected cells; host or cells: HTLA cells

320 non-olfactory GPCRs [2] = biological target: T2, 320 non-olfactory GPCRs (Homo sapiens, UniProt Q96G91); conditions: receptor P2RY11; replicate values, Fig_4g
T2 construct: expressed in transfected cells; host or cells: HTLA cells
T2 sequence (Q96G91 whole entry): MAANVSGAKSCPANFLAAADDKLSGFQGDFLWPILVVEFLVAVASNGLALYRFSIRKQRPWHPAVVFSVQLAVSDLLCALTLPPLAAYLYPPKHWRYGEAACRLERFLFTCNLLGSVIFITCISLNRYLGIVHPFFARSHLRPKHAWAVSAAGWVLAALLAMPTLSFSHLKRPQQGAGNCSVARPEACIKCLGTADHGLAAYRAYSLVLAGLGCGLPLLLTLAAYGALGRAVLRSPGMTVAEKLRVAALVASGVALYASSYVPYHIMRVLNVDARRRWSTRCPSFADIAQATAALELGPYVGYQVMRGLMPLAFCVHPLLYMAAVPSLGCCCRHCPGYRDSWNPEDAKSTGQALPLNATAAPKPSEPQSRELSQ

320 non-olfactory GPCRs [3] = biological target: T3, 320 non-olfactory GPCRs (Homo sapiens, UniProt P25116)
T3 construct: expressed in transfected cells; host or cells: HTLA cells
T3 sequence (P25116 22-425): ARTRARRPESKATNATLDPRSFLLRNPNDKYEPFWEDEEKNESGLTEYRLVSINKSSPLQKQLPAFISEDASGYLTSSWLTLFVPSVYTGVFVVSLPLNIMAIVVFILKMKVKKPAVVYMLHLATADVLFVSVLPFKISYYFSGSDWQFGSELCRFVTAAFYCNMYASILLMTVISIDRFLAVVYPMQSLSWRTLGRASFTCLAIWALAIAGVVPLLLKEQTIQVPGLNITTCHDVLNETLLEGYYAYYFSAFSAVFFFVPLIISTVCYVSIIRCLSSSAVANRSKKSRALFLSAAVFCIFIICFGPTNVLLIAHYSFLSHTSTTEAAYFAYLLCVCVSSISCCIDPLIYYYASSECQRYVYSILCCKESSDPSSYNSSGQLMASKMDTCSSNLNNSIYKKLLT

320 non-olfactory GPCRs [4] = biological target: T4, 320 non-olfactory GPCRs (Homo sapiens, UniProt O00398); conditions: receptor P2RY10; replicate values, Fig_4g
T4 construct: expressed in transfected cells; host or cells: HTLA cells
T4 sequence (O00398 whole entry): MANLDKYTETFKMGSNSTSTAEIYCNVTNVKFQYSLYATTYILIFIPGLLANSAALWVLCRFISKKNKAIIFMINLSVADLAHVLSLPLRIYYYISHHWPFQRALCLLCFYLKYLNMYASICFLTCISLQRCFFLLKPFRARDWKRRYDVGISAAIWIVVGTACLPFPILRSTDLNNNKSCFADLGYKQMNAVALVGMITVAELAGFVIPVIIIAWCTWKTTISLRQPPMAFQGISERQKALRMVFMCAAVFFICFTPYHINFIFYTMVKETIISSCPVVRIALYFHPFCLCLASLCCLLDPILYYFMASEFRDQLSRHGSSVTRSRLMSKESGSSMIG
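Wherever Fold of Basal is given: compound tested at 1 µM final concentration.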
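Wherever GPCRome agonism screen response is given: fold over basal response of each receptor without drug.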

T1 sequence (P47900 whole entry): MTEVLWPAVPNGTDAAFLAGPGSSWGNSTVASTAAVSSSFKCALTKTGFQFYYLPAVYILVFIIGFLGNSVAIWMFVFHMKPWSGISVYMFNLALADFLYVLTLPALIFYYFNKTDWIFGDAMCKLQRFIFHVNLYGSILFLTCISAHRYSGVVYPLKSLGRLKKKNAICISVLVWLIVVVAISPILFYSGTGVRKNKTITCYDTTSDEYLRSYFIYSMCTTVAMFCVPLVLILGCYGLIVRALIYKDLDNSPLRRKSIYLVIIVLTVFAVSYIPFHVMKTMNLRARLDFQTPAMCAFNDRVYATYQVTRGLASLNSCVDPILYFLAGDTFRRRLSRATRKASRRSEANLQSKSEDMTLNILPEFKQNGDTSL

CCOc1cccc2cc(C(C)NCC3(O)CCCCC3)oc12 (stereo not shown) [O4LE6]
GPCRome agonism screen response (320 non-olfactory GPCRs [1]): 1.006 and 0.5483 and 1.2859 and 1.3533 | GPCRome agonism screen response (320 non-olfactory GPCRs [2]): 1.047 and 1.146 and 1.063 and 1.471 | Fold of Basal (320 non-olfactory GPCRs [3]): 0.906 and 0.8507 and 1.071 and 1.142 | GPCRome agonism screen response (320 non-olfactory GPCRs [4]): 0.6744 and 0.6284 and 0.7052 and 0.972
